Measurements from the supplement of paper PMC4862054.

system: HDQ-P1; assay: normalised response (% of control), CellTiter-Glo; higher = more viable cells (100 = DMSO, 0 = benzethonium chloride kill control); conditions: incubation time: 72 h
Method: (§1)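 DSRT, 72 h incubation, CellTox Green / CellTiter-Glo readout. Signal is normalised to DMSO and benzethonium chloride controls. Value is the normalised response at dose 3.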

Going from Nc1ccn([C@@H]2O[C@H](CO)[C@@H](O)C2(F)F)c(=O)n1 [Gemcitabine] (10 nM) to O=[N+]([O-])c1ccc2c(c1)S(=O)(=O)C=C2 [Stattic] (500 nM), the normalised response falls from 102% to 100%.

Going from C=CCn1c(=O)c2cnc(Nc3ccc(N4CCN(C)CC4)cc3)nc2n1-c1cccc(C(C)(C)O)n1 [MK1775] (100 nM) to CCNC(=O)c1noc(-c2cc(C(C)C)c(O)cc2O)c1-c1ccc(CN2CCOCC2)cc1 [NVP-AUY922] (10 nM), the normalised response rises from 74.6% to 77.1%.

First: CO[C@@H]1[C@H](N(C)C(=O)c2ccccc2)C[C@H]2O[C@]1(C)n1c3ccccc3c3c4c(c5c6ccccc6n2c5c31)C(=O)NC4 [Midostaurin] (100 nM)
Second: O=C(CCCCCCC(=O)Nc1ccccc1)NO [Vorinostat] (100 nM)
The normalised response of the first is lower: 95.9% for the first, 97.1% for the second.

system: CAL-120; assay: as above; conditions: incubation time: 72 h
Method: as §1

First: Cc1cc(Nc2nc(N[C@@H](C)c3ncc(F)cn3)ncc2Cl)[nH]n1 [AZD1480] (10 nM)
Second: C=CCn1c(=O)c2cnc(Nc3ccc(N4CCN(C)CC4)cc3)nc2n1-c1cccc(C(C)(C)O)n1 [MK1775] (100 nM)
The normalised response of the first is higher: 98.4% for the first, 79% for the second.

Compared with CC1(COc2ccc3c(c2)ncn3-c2ccc3cccc(N4CCC(N)CC4)c3n2)COC1 [Crenolanib] (100 nM), Cn1cc(C2=C(c3cn(C4CCN(Cc5ccccn5)CC4)c4ccccc34)C(=O)NC2=O)c2ccccc21 [Enzastaurin] (100 nM) is higher in normalised response: 97.9% for the first, 99.1% for the second.

Going from Nc1ccn([C@@H]2O[C@H](CO)[C@@H](O)C2(F)F)c(=O)n1 [Gemcitabine] (10 nM) to O=[N+]([O-])c1ccc2c(c1)S(=O)(=O)C=C2 [Stattic] (500 nM), the normalised response rises from 94.9% to 98.2%.

Going from CO[C@@H]1[C@H](N(C)C(=O)c2ccccc2)C[C@H]2O[C@]1(C)n1c3ccccc3c3c4c(c5c6ccccc6n2c5c31)C(=O)NC4 [Midostaurin] (100 nM) to CCNC(=O)c1noc(-c2cc(C(C)C)c(O)cc2O)c1-c1ccc(CN2CCOCC2)cc1 [NVP-AUY922] (10 nM), the normalised response rises from 88.5% to 103%.

For O=C(CCCCCCC(=O)Nc1ccccc1)NO [Vorinostat] (100 nM), the normalised response was 96.1%.

system: CAL-148; assay: as above; conditions: incubation time: 72 h
Method: as §1

Compared with Cc1cc(Nc2nc(N[C@@H](C)c3ncc(F)cn3)ncc2Cl)[nH]n1 [AZD1480] (10 nM), C=CCn1c(=O)c2cnc(Nc3ccc(N4CCN(C)CC4)cc3)nc2n1-c1cccc(C(C)(C)O)n1 [MK1775] (100 nM) is lower in normalised response: 93.5% for the first, 73.4% for the second.

Going from CC1(COc2ccc3c(c2)ncn3-c2ccc3cccc(N4CCC(N)CC4)c3n2)COC1 [Crenolanib] (100 nM) to Cn1cc(C2=C(c3cn(C4CCN(Cc5ccccn5)CC4)c4ccccc34)C(=O)NC2=O)c2ccccc21 [Enzastaurin] (100 nM), the normalised response falls from 107% to 106%.

Compared with Nc1ccn([C@@H]2O[C@H](CO)[C@@H](O)C2(F)F)c(=O)n1 [Gemcitabine] (10 nM), O=[N+]([O-])c1ccc2c(c1)S(=O)(=O)C=C2 [Stattic] (500 nM) is higher in normalised response: 77.9% for the first, 98.3% for the second.

CO[C@@H]1[C@H](N(C)C(=O)c2ccccc2)C[C@H]2O[C@]1(C)n1c3ccccc3c3c4c(c5c6ccccc6n2c5c31)C(=O)NC4 [Midostaurin] (100 nM) and CCNC(=O)c1noc(-c2cc(C(C)C)c(O)cc2O)c1-c1ccc(CN2CCOCC2)cc1 [NVP-AUY922] (10 nM) are the same in normalised response: 114% for the first, 114% for the second.

Work on O=C(CCCCCCC(=O)Nc1ccccc1)NO [Vorinostat] (100 nM) yielded a normalised response of 108%.

system: SK-BR-3; assay: as above; conditions: incubation time: 72 h
Method: as §1

Going from Cc1cc(Nc2nc(N[C@@H](C)c3ncc(F)cn3)ncc2Cl)[nH]n1 [AZD1480] (10 nM) to C=CCn1c(=O)c2cnc(Nc3ccc(N4CCN(C)CC4)cc3)nc2n1-c1cccc(C(C)(C)O)n1 [MK1775] (100 nM), the normalised response falls from 97% to 79%.

First: CC1(COc2ccc3c(c2)ncn3-c2ccc3cccc(N4CCC(N)CC4)c3n2)COC1 [Crenolanib] (100 nM)
Second: Cn1cc(C2=C(c3cn(C4CCN(Cc5ccccn5)CC4)c4ccccc34)C(=O)NC2=O)c2ccccc21 [Enzastaurin] (100 nM)
The normalised response of the first is higher: 114% for the first, 104% for the second.

Going from Nc1ccn([C@@H]2O[C@H](CO)[C@@H](O)C2(F)F)c(=O)n1 [Gemcitabine] (10 nM) to O=[N+]([O-])c1ccc2c(c1)S(=O)(=O)C=C2 [Stattic] (500 nM), the normalised response rises from 79.6% to 106%.

First: CO[C@@H]1[C@H](N(C)C(=O)c2ccccc2)C[C@H]2O[C@]1(C)n1c3ccccc3c3c4c(c5c6ccccc6n2c5c31)C(=O)NC4 [Midostaurin] (100 nM)
Second: CCNC(=O)c1noc(-c2cc(C(C)C)c(O)cc2O)c1-c1ccc(CN2CCOCC2)cc1 [NVP-AUY922] (10 nM)
The normalised response of the first is higher: 98.4% for the first, 55.8% for the second.

O=C(CCCCCCC(=O)Nc1ccccc1)NO [Vorinostat] (100 nM) was tested, and the normalised response was 94.5%.

system: MFM-223; assay: as above; conditions: incubation time: 72 h
Method: as §1

First: Cc1cc(Nc2nc(N[C@@H](C)c3ncc(F)cn3)ncc2Cl)[nH]n1 [AZD1480] (10 nM)
Second: C=CCn1c(=O)c2cnc(Nc3ccc(N4CCN(C)CC4)cc3)nc2n1-c1cccc(C(C)(C)O)n1 [MK1775] (100 nM)
The normalised response of the first is higher: 96% for the first, 82.4% for the second.

Going from CC1(COc2ccc3c(c2)ncn3-c2ccc3cccc(N4CCC(N)CC4)c3n2)COC1 [Crenolanib] (100 nM) to Cn1cc(C2=C(c3cn(C4CCN(Cc5ccccn5)CC4)c4ccccc34)C(=O)NC2=O)c2ccccc21 [Enzastaurin] (100 nM), the normalised response rises from 104% to 106%.

First: Nc1ccn([C@@H]2O[C@H](CO)[C@@H](O)C2(F)F)c(=O)n1 [Gemcitabine] (10 nM)
Second: O=[N+]([O-])c1ccc2c(c1)S(=O)(=O)C=C2 [Stattic] (500 nM)
The normalised response of the first is higher: 100% for the first, 96.8% for the second.

Compared with CO[C@@H]1[C@H](N(C)C(=O)c2ccccc2)C[C@H]2O[C@]1(C)n1c3ccccc3c3c4c(c5c6ccccc6n2c5c31)C(=O)NC4 [Midostaurin] (100 nM), CCNC(=O)c1noc(-c2cc(C(C)C)c(O)cc2O)c1-c1ccc(CN2CCOCC2)cc1 [NVP-AUY922] (10 nM) is lower in normalised response: 98.8% for the first, 70.4% for the second.
